Columns and labels:
NK cell = conditions: about 750 mg per day for two weeks; cited from earlier work
MCA-OVA tumor cells = experiment: Example 2: tumor growth in mice on supplemented diets with or without chemotherapy; type: in vivo, C57BL/6 (H-2b) mice
Method: (§1) Mice. […] The animals were distributed into 7 different group diets. There was a control group that received the diet AIN 93 for adult rodents (maintenance). […] Control animals without chemotherapeutic treatment were run in parallel for all tested diets. Body weight was assessed every two days. Blood samples were obtained at day 2, 4 and 10 after the chemo-treatment and at sacrifice (14 or 28 days). An autopsy was performed and tumor mass was assessed.
Cancer Cell Lines. Methylcholanthrene (MCA) induced sarcoma cell line expressing the exogenous antigen ovalbumin (OVA) was grown in DMEM or RPMI 1640 supplemented with 2 mM L-glutamine, 10 mM HEPES, 20 μM 2-mercaptoethanol, 150 U/mL streptomycin, 200 U/mL penicillin, and 10% heat-inactivated FBS. 1×10^6 tumor cells were injected in the flank of the mice 6 days prior to the chemotherapy.
Tumor Growth Evaluation. Growth of tumors was monitored every 2 d by using calipers, and tumor volume was calculated by using the formula length×width×width×0.52 mm^3.

[1] = Example 2: body weight, haematology and flow cytometry of immune cells in tumor-bearing mice on supplemented diets with or without chemotherapy; type: in vivo, C57BL/6 (H-2b) mice; conditions: for immune cell population / concentration: during the second (tumor-induced) phase; for Global lymphocyte population: following chemotherapy
Method: as §1, with “(maintenance). Test diets were administered in doses appropriate to the animal model: (a) Ctrl diet were supplemented with 1% (w/w) L-arginine, (b) 25% of the protein was replaced by glutamine, (c) 1% (w/w) L-citrulline, (d) 1 g/Kg body weight with active hexose correlated compound, (e) 20 mg/day of RNA nucleotides and (f) 25 mg/day of lactoferrin.” for “(maintenance).”
Haematological Evaluation.
Flow Cytometric Analysis.

[2] = Example 1: body weight and haematological toxicity of chemotherapy in tumor-bearing mice
Method: Mice. Inbred eight-week-old C57BL/6 (H-2b) mice were used in the experiments. Mice were inoculated subcutaneously (s.c.) on the left flank with 1×10^6 tumor cells, and tumor growth was monitored every 2 days by caliper measurement. 6 days after the tumor inoculation the animals were treated either with oxaliplatin or doxorubicin. Tumor growth was monitored every two days after the chemotherapeutic treatment and they were sacrificed after two weeks of tumor implantation. Some experiments were carried out until 28 days post-chemo to better assess tumor growth.
Body weight was assessed every two days until sacrifice.
Blood samples were obtained at day 2 and 4 after the chemo-treatment, at day 10 and at sacrifice (14 or 28 days). An autopsy was performed and tumoral mass was assessed.
Haematological Evaluation. Red blood cell enumeration, hemoglobin and hematocrit were measured at 2, 4, 10, 14 and 28 days.
White blood cell counts and differential leukocyte formulation were examined at the same time points. Blood samples were used in addition to determine immune cell populations.
Flow Cytometric Analysis. Cell subset analysis of the CD11c^+, CD11b^+Gr-1^+ and CD11b^+Gr-1^−, CD14^+, CD19^+, CD16^+, CD56^+, CD3^+, CD8^+, CD4^+ was performed. The battery of antibodies used permitted the evaluation of: B and T cell subsets NK, NKT cells, macrophages, dendritic cells, granulocytes.

γδ T cells = conditions: acid hydrolysed, diluted in media; 5%-75%; cited from earlier work

Molecule: vitamin E
- NK cell cytolytic activity (NK cell): significantly improved
- NKG2D expression (NK cell): small but consistent induction

Molecule: N=C(N)NCCC[C@H](N)C(=O)O [arginine, L-arginine]
- tumor size (MCA-OVA tumor cells; combination with chemotherapy versus chemotherapy alone (FIG. 4)): further reduced the tumor size
- progression of the implanted tumor (MCA-OVA tumor cells; compared to other diet groups): delayed progression of the implanted tumor
- fall of erythrocytes (RBC) ([1]; between days 6 and 10 post-chemo (FIG. 3)): prevented the marked fall of erythrocytes
- immune cell population / concentration [1]: increase immune cell concentration
- loss of CD3+ cells ([1]; flow cytometry, around 10 days post chemotherapy): partially modulated

Molecule: O=C1[O][Pt]2([NH][C@@H]3CCCC[C@H]3[NH]2)[O]C1=O [oxaliplatin]
- Maximal weight loss ([1]; maximal dose 10 mg/kg): around 15%
- Maximal weight loss ([2]; maximal dose 10 mg/kg, of initial body weight): around 15%
- leukocyte counts ([2]; recovery starting after 7 days post chemotherapy): higher that the baseline counts

Molecule: NC(=O)NCCC[C@H](N)C(=O)O [citrulline, L-citrulline]
- Global lymphocyte population [1]: less depressed

Molecule: lactoferrin
- toxicity (bone marrow / blood cells) ([1]; chemotherapy treated group versus control (FIG. 11)): less toxicity
- immune cell population / concentration [1]: increase in their immune cell population
- Global lymphocyte population [1]: less depressed
- leukocytic increase (white blood cell counts) ([1]; oxaliplatin treated animals, after day ten): leukocytic increase tended to be higher

Molecule: CCNC(=O)CC[C@H](N)C(=O)O [L-theanine]
- expansion of γδ T cells (γδ T cells): 15 fold

Molecule: NC(=O)CC[C@H](N)C(=O)O [glutamine]
- Global lymphocyte population [1]: less depressed

Source: patent publication US20110229447A1, “NUTRITIONAL SUPPORT TO PREVENT OR MODERATE BONE MARROW PARALYSIS OR NEUTROPENIA DURING ANTI-CANCER TREATMENT” (priority 2008, published 2011)
